Legend:
[1] = system: AEGCY (jointed goatgrass); experiment: Post-emergence herbicidal activity, cool season; assay type: in vivo, Aegilops cylindrica; settings: abraded plants sprayed at 300, 100, 30 and 10 g/ha; about 14 days after treatment
Experimental: (§1) In another set of tests, the post-emergence activity of compounds of this invention was evaluated on the cool season species listed above. The following procedure was used.
(§2) A pre-prepared topsoil mixture (described above) was placed in a pot and compacted to a depth of 1.0 to 1.25 cm from the top of the pot. Seeds of each of several monocotyledonous and dicotyledonous annual plant species were placed on top of the soil. The seeds were covered with a mixture of 50% topsoil and 50% Rediearth™ in sufficient quantity to level-fill the pots. The pots were then placed on a greenhouse bench and subirrigated as needed.
(§3) When plants growing from the seeds had emerged and reached a suitable growth stage for post-emergence treatment, typically 9 to 14 days after planting, above-ground parts of the plants were subjected to a pre-treatment involving abrasion to create greater opportunity for foliar uptake of subsequently applied compounds. Abrasion was performed using garnet 200w particles applied with a Sears Craftsman hand-held sandblaster operated at approximately 850 kPa (50 psig) pressure.
(§4) A known amount of each test compound dissolved or suspended in an appropriate organic solvent was diluted with a 50:50 mix of acetone and water and applied to the plants by spraying with a standard spray nozzle in a spray volume of […] at a spray pressure of 511 kPa (30 psig). Only the compounds of Examples 1, 8-15 and 17-22 were included in post-emergence tests. Application rates for these compounds were 300, 100, 30 and 10 g/ha. Control plants were abraded but not sprayed.
(§5) After treatment the plants were placed in a greenhouse with an 18/13° C. day/night temperature regime and were subsequently watered as needed for growth. Approximately 14 days after treatment, the plants were observed and herbicidal efficacy recorded as percent inhibition by comparison with control plants. GR80 values were assigned for each compound as described above for the pre-emergence tests.

[2] = system: LOLMG (annual ryegrass); experiment: Post-emergence herbicidal activity, cool season; assay type: in vivo, Lolium multiflorum; settings: abraded plants sprayed at 300, 100, 30 and 10 g/ha; about 14 days after treatment
Experimental: as §1, §2, §3, §4, §5

[3] = system: SORVU (shattercane); experiment: Pre-emergence herbicidal activity, warm season; assay type: in vivo, Sorghum vulgare; settings: GR80 = lowest tested rate (300, 100, 30, 10 g/ha) with 80% or greater inhibition; approx. 14 days after treating; 30/21° C.
Outline: (§6)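 Seeds sown in sterilised fertilised topsoil received surface-applied compound in 50:50 acetone/water, typically at 300, 100, 30 and 10 g/ha, then greenhouse-grown at 30/21° C (warm-season species) or 18/13° C (cool-season species). Percent inhibition versus untreated plants was scored at about 14 days, giving GR80; an asterisk marks activity short of 80% at the top rate.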

[4] = system: SINAR (wild mustard); experiment: Pre-emergence herbicidal activity, cool season; assay type: in vivo, Sinapis arvensis; settings: lowest tested rate with 80% or greater inhibition; rates 300, 100, 30, 10 g/ha; about 14 days
Outline: as §6

[5] = system: PANMI (wild proso millet); experiment: Pre-emergence herbicidal activity, warm season; assay type: in vivo, Panicum miliaceum; settings: GR80 = lowest tested rate (300, 100, 30, 10 g/ha) with 80% or greater inhibition; approx. 14 days after treating; 30/21° C.
Outline: (§7)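 Each pot received seeds on sterilized fertilized topsoil, a soil cover, and a surface spray of compound (300–10 g/ha, acetone/water 50:50). Plants grew about 14 days at 30/21 °C (PANMI, DIGSA) or 18/13 °C (ALOMY, POLCO) before inhibition was rated against untreated pots to give GR80.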

[6] = system: BROTE (downy brome); experiment: Post-emergence herbicidal activity, cool season; assay type: in vivo, Bromus tectorum; settings: abraded plants sprayed at 300, 100, 30 and 10 g/ha; about 14 days after treatment
Experimental: as §1, §2, §3, §4, §5

[7] = system: AGSST (creeping bentgrass); experiment: Post-emergence herbicidal activity, cool season; assay type: in vivo, Agrostis stolonifera; settings: abraded plants sprayed at 300, 100, 30 and 10 g/ha; about 14 days after treatment
Experimental: as §1, §2, §3, §4, §5

[8] = system: SASKR (russian thistle); experiment: Pre-emergence herbicidal activity, cool season; assay type: in vivo, Salsola kali; settings: lowest tested rate with 80% or greater inhibition; rates 300, 100, 30, 10 g/ha; about 14 days
Outline: as §6

[9] = system: AGRRE (quackgrass (seedling)); experiment: Post-emergence herbicidal activity, cool season; assay type: in vivo, Elymus repens; settings: abraded plants sprayed at 300, 100, 30 and 10 g/ha; about 14 days after treatment
Experimental: as §1, §2, §3, §4, §5

[10] = system: AVEFA (wild oat); experiment: Post-emergence herbicidal activity, cool season; assay type: in vivo, Avena fatua; settings: abraded plants sprayed at 300, 100, 30 and 10 g/ha; about 14 days after treatment
Experimental: as §1, §2, §3, §4, §5

[11] = system: POLCO (wild buckwheat); experiment: Pre-emergence herbicidal activity, cool season; assay type: in vivo, Polygonum convolvulus; settings: lowest tested rate with 80% or greater inhibition; rates 300, 100, 30, 10 g/ha; about 14 days
Outline: as §7

[12] = system: SETVI (green foxtail); experiment: Post-emergence herbicidal activity, cool season; assay type: in vivo, Setaria viridis; settings: abraded plants sprayed at 300, 100, 30 and 10 g/ha; about 14 days after treatment
Experimental: as §1, §2, §3, §4, §5

[13] = system: STEME (common chickweed); experiment: Pre-emergence herbicidal activity, cool season; assay type: in vivo, Stellaria media; settings: lowest tested rate with 80% or greater inhibition; rates 300, 100, 30, 10 g/ha; about 14 days
Outline: as §6

[14] = system: ALOMY (blackgrass); experiment: Post-emergence herbicidal activity, cool season; assay type: in vivo, Alopecurus myosuroides; settings: abraded plants sprayed at 300, 100, 30 and 10 g/ha; about 14 days after treatment
Experimental: as §1, §2, §3, §4, §5

[15] = system: VERPE (creeping speedwell); experiment: Pre-emergence herbicidal activity, cool season; assay type: in vivo, Veronica persicaria; settings: lowest tested rate with 80% or greater inhibition; rates 300, 100, 30, 10 g/ha; about 14 days
Outline: as §6

[16] = system: LAMPU (purple deadnettle); experiment: Pre-emergence herbicidal activity, cool season; assay type: in vivo, Lamium purpureum; settings: lowest tested rate with 80% or greater inhibition; rates 300, 100, 30, 10 g/ha; about 14 days
Outline: as §6

[17] = system: GALAP (catchweed bedstraw); experiment: Pre-emergence herbicidal activity, cool season; assay type: in vivo, Galium aparine; settings: lowest tested rate with 80% or greater inhibition; rates 300, 100, 30, 10 g/ha; about 14 days
Outline: as §6

[18] = system: PANDI (fall panicum); experiment: Pre-emergence herbicidal activity, warm season; assay type: in vivo, Panicum dichotomiflorum; settings: GR80 = lowest tested rate (300, 100, 30, 10 g/ha) with 80% or greater inhibition; approx. 14 days after treating; 30/21° C.
Outline: as §6

[19] = system: AGSST (creeping bentgrass); experiment: Pre-emergence herbicidal activity, cool season; assay type: in vivo, Agrostis stolonifera; settings: GR80 = lowest tested rate (300, 100, 30, 10 g/ha) with 80% or greater inhibition; approx. 14 days after treating; 18/13° C.
Outline: as §6

[20] = system: CHEAL (common lambsquarters); experiment: Pre-emergence herbicidal activity, warm season; assay type: in vivo, Chenopodium album; settings: GR80 = lowest tested rate (300, 100, 30, 10 g/ha) with 80% or greater inhibition; approx. 14 days after treating; 30/21° C.
Outline: as §6

| SMILES | Post-emergence activity GR80, AEGCY [1] | Post-emergence activity GR80, LOLMG [2] | Pre-emergence activity (GR80) SORVU [3] | Pre-emergence activity GR80, SINAR [4] | Pre-emergence activity (GR80) PANMI [5] | Post-emergence activity GR80, BROTE [6] | Post-emergence activity GR80, AGSST [7] | Pre-emergence activity GR80, SASKR [8] | Post-emergence activity GR80, AGRRE [9] | Post-emergence activity GR80, AVEFA [10] | Pre-emergence activity GR80, POLCO [11] | Post-emergence activity GR80, SETVI [12] | Pre-emergence activity GR80, STEME [13] | Post-emergence activity GR80, ALOMY [14] | Pre-emergence activity GR80, VERPE [15] [g/ha] | Pre-emergence activity GR80, LAMPU [16] | Pre-emergence activity GR80, GALAP [17] | Pre-emergence activity (GR80) PANDI [18] [g/ha] | Pre-emergence activity (GR80) AGSST [19] [g/ha] | Pre-emergence activity (GR80) CHEAL [20] [g/ha] |
| --- | --- | --- | --- | --- | --- | --- | --- | --- | --- | --- | --- | --- | --- | --- | --- | --- | --- | --- | --- | --- |
| CCN(CC)C(=O)n1cnc(S(=O)(=O)C(F)(F)SCCOC(C)=O)n1 [Example 21] | [empty] | [empty] | * (activity observed, at least at highest rate, but <80% inhibition) | [empty] | * (activity observed, at least at highest rate, but <80% inhibition) | [empty] | [empty] | [empty] | [empty] | [empty] | [empty] | [empty] | [empty] | [empty] | 300 | 300 g/ha | 300 g/ha | – | – | – |
| CCN(CC)C(=O)n1cnc(S(=O)(=O)C(F)(F)SCCOC(=O)c2ccccc2)n1 [Example 22] | [empty] | [empty] | * (activity observed, at least at highest rate, but <80% inhibition) | [empty] | – | [empty] | [empty] | [empty] | [empty] | [empty] | [empty] | [empty] | [empty] | [empty] | 300 | [empty] | [empty] | 300 | 300 | 300 |

— patent US6461997B1, “Triazole sulfones having herbicidal activity” (Monsanto Technology LLC, priority 1999, dated 2002)
